Counter-ions that a name gives are not always drawn.
Key:
α1 receptor = assay: Anti-α1 action: norepinephrine (NE)-induced tonic contraction of isolated thoracic aorta (helical strip); set-up: species or system Hartley male guinea pig; settings: contraction induced by 10^-5 M norepinephrine taken as 100%, guinea pig thoracic aorta, 37° C, compounds marked * tested as hydrochloride; for Anti α1 action (% of Control), 10^-7 M: test drug 10^-7 M, 0.1 µM; for Anti α1 action (% of Control), 10^-8 M: test drug 10^-8 M, 0.01 µM
Experimental: The thoracic aorta of each Hartley male guinea pig (body weight: 300-500 g) was excised. A sample cut in a helical form was suspended under 1 g load in a Magnus cylinder filled with the Tyrode solution of 37° C. which had been saturated with a mixed gas consisting of 95% O2 +5% CO2. Using an isometric transducer ("TB-612J"/NIHON KOHDEN) and a pressure preamplifier ("AP-620G"/NIHON KOHDEN), variations in tension were measured. The measurement results were recorded on a thermal pen-writing recorder ("WT-647G"/NIHON KOHDEN).
Taking the tonic contraction induced by 10^- 5M norepinephrine (NE) as 100%, the percent contractions upon addition of each test drug at 10^-8 and 10^-7 M were determined as anti-α1 action.

[1] = target: T1, serotonin (5-HT) receptor (Cavia porcellus, UniProt A0A286Y537); assay: Anti-serotonin action (anti-5-HT action): 5-HT-induced contraction of isolated superior mesenteric artery (helical strip); set-up: species or system Hartley male guinea pig; settings: contraction induced by 10^-5 M serotonin taken as 100%, guinea pig superior mesenteric artery, 37° C, compounds marked * tested as hydrochloride; for remaining activity at 1 µM: test drug 10^-6 M, read-out: Anti 5-HT action (% of Control), 10^-6 M; for remaining activity at 0.1 µM: test drug 10^-7 M, read-out: Anti 5-HT action (% of Control), 10^-7 M
T1 construct: 5-HT-induced contraction
Experimental: (2) Anti-serotonin action (anti-5-HT action)
A sample cut in a helical form was suspended under 0.3 g load in a Magnus cylinder filled with the Tyrode solution of 37° C. which had been saturated with a mixed gas consisting of 95% O2 +5% CO2. Using an isometric transducer ("UL-10"/SHINKOH K.K.) and a pressure preamplifier ("DSA-605A"/SHINKOH K.K.), variations in tension were measured. The measurement results were recorded on a pen-writing recorder ("VP-6537A"/NATIONAL K.K.). Taking the contraction induced by 10^-5 M serotonin (5-HT) as 100%, the percent contractions induced by 10^-5 M 5-HT in the presence of each test drug at 10^-7 and 10^-6 M were determined as anti-5-HT action.

platelet aggregation = assay: Anti-platelet-aggregating action: platelet aggregation induced by ADP + 5-HT in platelet rich plasma; assay type: cell-based, Japanese white house rabbit; settings: Oryctolagus cuniculus, test drug 10^-7 M, aggregation induced by 10^-6 M ADP + 10^-5 M 5-HT, 1 mM CaCl2 CaCl2, rabbit PRP, compound marked * (45) tested as hydrochloride, read-out: Inhibitory rate of platelet aggregation (%)
Experimental: (3) Anti-platelet-aggregating action
Blood was drawn from the auricular artery of Japanese white house rabbit (male, about 3 kg), whereby a platelet rich plasma sample (PRP) was prepared. Platelet aggregating ability was measured using a platelet aggregation measuring apparatus ("PAM-SC"/MEBANIX).
Found under the presence of 1 mM of CaCl2 was a controlling action of the test drug (10^-7 M) against the maximum reaction (100%) of the platelet aggregation induced by 10^-6 M of ADP+10^-5 M of 5-HT.

T1 sequence (A0A286Y537 1-470): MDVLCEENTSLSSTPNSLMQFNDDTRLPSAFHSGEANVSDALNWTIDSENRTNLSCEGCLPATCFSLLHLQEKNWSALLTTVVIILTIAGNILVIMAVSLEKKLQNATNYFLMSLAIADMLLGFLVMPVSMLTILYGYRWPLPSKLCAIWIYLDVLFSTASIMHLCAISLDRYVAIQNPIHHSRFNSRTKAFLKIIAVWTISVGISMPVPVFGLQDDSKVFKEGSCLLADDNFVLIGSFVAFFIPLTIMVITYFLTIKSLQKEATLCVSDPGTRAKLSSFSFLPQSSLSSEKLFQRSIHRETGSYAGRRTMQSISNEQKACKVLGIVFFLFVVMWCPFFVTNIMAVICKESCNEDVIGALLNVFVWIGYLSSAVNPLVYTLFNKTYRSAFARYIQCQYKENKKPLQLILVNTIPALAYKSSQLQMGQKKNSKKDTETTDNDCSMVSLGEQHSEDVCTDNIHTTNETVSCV

Structure (SMILES) | Anti α1 action (% of Control), 10^-7 M (α1 receptor) | Anti α1 action (% of Control), 10^-8 M (α1 receptor) | remaining activity at 1 µM [1] | remaining activity at 0.1 µM [1] | inhibition at 0.1 µM (platelet aggregation)
CCn1ccc2c1C(=O)N(CCCN1CCN(c3ccccc3)CC1)CCC2=O [Compound No. 19, 1-Ethyl-7-[3-(4-phenylpiperazin-1-yl)propyl]-6,7-dihydropyrrolo[2,3-c]azepine-4,8(1H,5H)-dione] | 90.1 % of Control | 100.0 % of Control | 12.4% | 60.3% | 
COc1cccc(N2CCN(CCCN3CCC(=NO)c4ccn(C)c4C3=O)CC2)c1 [Compound No. 50, 4-Hydroxyimino-7-[3-[4-(3-methoxyphenyl)piperazin-1-yl]propyl]-1-methyl-4,5,6,7-tetrahydropyrrolo[2,3-c]azepin-8(1H)-one] | 38.8 % of Control | 57.6 % of Control | 18.4% | 60% | 
Cn1ccc2c1C(=O)N(CCCN1CCC(c3ccccc3)CC1)CCC2=NO [Compound No. 52, 4-Hydroxyimino-1-methyl-7-[3-(4-phenylpiperidin-1-yl)propyl]-4,5,6,7-tetrahydropyrrolo[2,3-c]azepin-8(1H)-one] | 62.6 % of Control | 97.2 % of Control | 9.9% | 39.1% | 
Cn1ccc2c1C(=O)N(CCCN1CCN(c3ccccc3)CC1)CCC2=NO [Compound No. 45, 4-hydroxyimino-1-methyl-7-[3-(4-phenylpiperazin-1-yl)propyl]-4,5,6,7-tetrahydropyrrolo[2,3-c]azepin-8(1H)-one] | 23.8 % of Control | 79.8 % of Control |  | 11.2% | 30%
O=C(c1ccc(F)cc1)C1CCN(CCn2c(=O)[nH]c3ccccc3c2=O)CC1 [Ketanserin tartrate, reference compound] |  |  |  |  | 20%
O=C1c2c(ccn2Cc2ccccc2)C(=NO)CCN1CCCN1CCN(c2ccccc2)CC1 [Compound No. 48, 1-Benzyl-4-hydroxyimino-7-[3-(4-phenylpiperazin-1-yl)propyl]-4,5,6,7-tetrahydropyrrolo[2,3-c]azepin-8(1H)-one] | 60.5 % of Control | 98.9 % of Control | 5.1% | 52.8% | 
Cn1ccc2c1C(=O)N(CCCN1CCN(c3ccccc3)CC1)CCC2O (centres unmarked) [Compound No. 39, 4-hydroxy-1-methyl-7-[3-(4-phenylpiperazin-1-yl)propyl]-4,5,6,7-tetrahydropyrrolo[2,3-c]azepin-8(1H)-one] | 80.5 % of Control | 99.3 % of Control | 8.7% | 34.3% | 33%
Cn1ccc2c1C(=O)N(CCCN1CCN(c3ccc(F)cc3)CC1)CCC2O (centres unmarked) [Compound No. 40, 7-[3-[4-(4-Fluorophenyl)piperazin-1-yl]propyl]-4-hydroxy-1-methyl-4,5,6,7-tetrahydropyrrolo[2,3-c]azepin-8(1H)-one] | 94.5 % of Control | 100.0 % of Control | 12.5% | 24.2% | 
Cn1ccc2c1C(=O)N(CCCN1CCC(C(=O)c3ccc(F)cc3)CC1)CCC2=NO [Compound No. 43] | 37.9 % of Control | 73.3 % of Control | 8.7% | 43.1% | 18%
CCn1ccc2c1C(=O)N(CCCN1CCN(c3ccccc3)CC1)CCC2=NO [Compound No. 47, 1-Ethyl-4-hydroxyimino-7-[3-(4-phenylpiperazin-1-yl)propyl]-4,5,6,7-tetrahydropyrrolo[2,3-c]azepin-8(1H)-one] | 81.9 % of Control | 100.0 % of Control |  | 5.2% | 34%
Cn1ccc2c1C(=O)N(CCCN1CCN(c3ccccc3)CC1)CCC2=O [Compound No. 18, 1-Methyl-7-[3-(4-phenylpiperazin-1-yl)propyl]-6,7-dihydropyrrolo[2,3-c]azepine-4,8(1H,5H)-dione] | 85.5 % of Control | 100.0 % of Control | 16.3% | 52.8% | 
CON=C1CCN(CCCN2CCN(c3ccccc3)CC2)C(=O)c2c1ccn2C [Compound No. 46, 4-Methoxyimino-1-methyl-7-[3-(4-phenylpiperazin-1-yl)propyl]-4,5,6,7-tetrahydropyrrolo[2,3-c]azepin-8(1H)-one] | 28.0 % of Control | 78.7 % of Control | 12.8% | 59.5% | 
